Laboratory results reported in patent US20060264388A1, “Method for treating liver cancer by intrahepatic administration of nemorubicin” (priority 2003, published 2006).

Experiments:
[1] = tested on: patients with liver cancer; assay: Liver toxicity (SGOT, SGPT, Total Bilirubin), worst CTC Grade by cycle, intrahepatic artery nemorubicin q8wk vs q6wk; assay type: in vivo, human
Method: (§1) The objective of the study was to shorten the time interval between treatment administrations from every 8 weeks (q8wk) of the protocol as reported in WO 00/15203 to every 6 weeks (q6wk). This was done in the attempt of improving the therapeutic potential of nemorubicin treatment through an increase of the dose intensity of the therapy, simultaneously safeguarding patient safety.
(§2) Overall, 13 patients were treated with the q8wk schedule (total 25 cycles administered; doses ranged from 200 to 800 mcg/m^2), and 11 patients were treated with the q6wk schedule (total 32 cycles administered; doses were 200 and 600 mcg/m^2).
(§3) The NCI-Common Tosicity Criteria grading system (CTC Grade), Version 2.0, was used to report toxicities.

[2] = tested on: patients with liver cancer; assay: Hematological toxicity - Platelets, worst CTC Grade by cycle, intrahepatic artery nemorubicin q8wk vs q6wk; assay type: in vivo, human
Method: as §1, §2, §3
A slight cumulative effect (i.e., increase in frequency but not in severity) was observed after repeated cycles for leucopenia and neutropenia (Tables 2 and 3), mainly with the q8wk schedule.

[3] = 200 mcg/m^2 q6wk, 12 evaluable cycles
[4] = 200 mcg/m^2 q8wk, 5 evaluable cycles
[5] = 400 mcg/m^2 q8wk, 4 evaluable cycles
[6] = 600 mcg/m^2 q6wk, 17 evaluable cycles
[7] = 600 mcg/m^2 q6wk, 18 evaluable cycles
[8] = 600 mcg/m^2 q8wk, 7 evaluable cycles
[9] = 800 mcg/m^2 q8wk, 5 evaluable cycles
[10] = 800 mcg/m^2 q8wk, 6 evaluable cycles
[11] = 200 mcg/m^2 q6wk, All cycles, 11 evaluable cycles
[12] = 200 mcg/m^2 q6wk, Cycle 1, 5 evaluable cycles
[13] = 200 mcg/m^2 q6wk, Cycles > 1, 6 evaluable cycles
[14] = 200 mcg/m^2 q8wk, All cycles, 5 evaluable cycles
[15] = 200 mcg/m^2 q8wk, Cycle 1, 3 evaluable cycles
[16] = 200 mcg/m^2 q8wk, Cycles > 1, 2 evaluable cycles

SMILES: COc1cccc2c1C(=O)c1c(O)c3c(c(O)c1C2=O)C[C@@](O)(C(=O)CO)C[C@@H]3O[C@H]1C[C@H](N2CCO[C@H](OC)C2)[C@H](O)[C@H](C)O1.Cl [nemorubicin, 3′desamino-3′[2(S)methoxy-4-morpholinyl]doxorubicin-hydrochloride]
- SGOT, worst CTC Grade by cycle (increased of at least one Grade versus baseline Grade): All Grades (%) [1, 3]: 9 (75%) (%)
- SGOT, worst CTC Grade by cycle (increased of at least one Grade versus baseline Grade): Grade 1-2 (%) [1, 3]: 8 (67%) (%)
- SGOT, worst CTC Grade by cycle (increased of at least one Grade versus baseline Grade): Grade 3-4 (%) [1, 3]: 1 (8%) (%)
- SGPT, worst CTC Grade by cycle (increased of at least one Grade versus baseline Grade): All Grades (%) [1, 3]: 7 (58%) (%)
- SGPT, worst CTC Grade by cycle (increased of at least one Grade versus baseline Grade): Grade 1-2 (%) [1, 3]: 7 (58%) (%)
- Total Bilirubin, worst CTC Grade by cycle (increased of at least one Grade versus baseline Grade): All Grades (%) [1, 3]: 10 (83%) (%)
- Total Bilirubin, worst CTC Grade by cycle (increased of at least one Grade versus baseline Grade): Grade 1-2 (%) [1, 3]: 10 (83%) (%)
- SGOT, worst CTC Grade by cycle (increased of at least one Grade versus baseline Grade): All Grades (%) [1, 4]: 3 (60%) (%)
- SGOT, worst CTC Grade by cycle (increased of at least one Grade versus baseline Grade): Grade 1-2 (%) [1, 4]: 3 (60%) (%)
- SGPT, worst CTC Grade by cycle (increased of at least one Grade versus baseline Grade): All Grades (%) [1, 4]: 4 (80%) (%)
- SGPT, worst CTC Grade by cycle (increased of at least one Grade versus baseline Grade): Grade 1-2 (%) [1, 4]: 4 (80%) (%)
- Total Bilirubin, worst CTC Grade by cycle (increased of at least one Grade versus baseline Grade): All Grades (%) [1, 4]: 5 (100%) (%)
- Total Bilirubin, worst CTC Grade by cycle (increased of at least one Grade versus baseline Grade): Grade 1-2 (%) [1, 4]: 5 (100%) (%)
- SGOT, worst CTC Grade by cycle (increased of at least one Grade versus baseline Grade): All Grades (%) [1, 5]: 4 (100%) (%)
- SGOT, worst CTC Grade by cycle (increased of at least one Grade versus baseline Grade): Grade 1-2 (%) [1, 5]: 1 (25%) (%)
- SGOT, worst CTC Grade by cycle (increased of at least one Grade versus baseline Grade): Grade 3-4 (%) [1, 5]: 3 (75%) (%)
- SGPT, worst CTC Grade by cycle (increased of at least one Grade versus baseline Grade): All Grades (%) [1, 5]: 3 (75%) (%)
- SGPT, worst CTC Grade by cycle (increased of at least one Grade versus baseline Grade): Grade 1-2 (%) [1, 5]: 2 (50%) (%)
- SGPT, worst CTC Grade by cycle (increased of at least one Grade versus baseline Grade): Grade 3-4 (%) [1, 5]: 1 (25%) (%)
- Total Bilirubin, worst CTC Grade by cycle (increased of at least one Grade versus baseline Grade): All Grades (%) [1, 5]: 2 (50%) (%)
- Total Bilirubin, worst CTC Grade by cycle (increased of at least one Grade versus baseline Grade): Grade 1-2 (%) [1, 5]: 2 (50%) (%)
- SGOT, worst CTC Grade by cycle (increased of at least one Grade versus baseline Grade): All Grades (%) [1, 6]: 16 (94%) (%)
- SGOT, worst CTC Grade by cycle (increased of at least one Grade versus baseline Grade): Grade 1-2 (%) [1, 6]: 14 (82%) (%)
- SGOT, worst CTC Grade by cycle (increased of at least one Grade versus baseline Grade): Grade 3-4 (%) [1, 6]: 2 (12%) (%)
- SGPT, worst CTC Grade by cycle (increased of at least one Grade versus baseline Grade): All Grades (%) [1, 7]: 16 (89%) (%)
- SGPT, worst CTC Grade by cycle (increased of at least one Grade versus baseline Grade): Grade 1-2 (%) [1, 7]: 14 (78%) (%)
- SGPT, worst CTC Grade by cycle (increased of at least one Grade versus baseline Grade): Grade 3-4 (%) [1, 7]: 2 (11%) (%)
- Total Bilirubin, worst CTC Grade by cycle (increased of at least one Grade versus baseline Grade): All Grades (%) [1, 7]: 14 (77%) (%)
- Total Bilirubin, worst CTC Grade by cycle (increased of at least one Grade versus baseline Grade): Grade 1-2 (%) [1, 7]: 13 (72%) (%)
- Total Bilirubin, worst CTC Grade by cycle (increased of at least one Grade versus baseline Grade): Grade 3-4 (%) [1, 7]: 1 (5%) (%)
- SGOT, worst CTC Grade by cycle (increased of at least one Grade versus baseline Grade): All Grades (%) [1, 8]: 4 (57%) (%)
- SGOT, worst CTC Grade by cycle (increased of at least one Grade versus baseline Grade): Grade 1-2 (%) [1, 8]: 2 (28%) (%)
- SGPT, worst CTC Grade by cycle (increased of at least one Grade versus baseline Grade): All Grades (%) [1, 8]: 4 (57%) (%)
- SGPT, worst CTC Grade by cycle (increased of at least one Grade versus baseline Grade): Grade 1-2 (%) [1, 8]: 1 (14%) (%)
- Total Bilirubin, worst CTC Grade by cycle (increased of at least one Grade versus baseline Grade): All Grades (%) [1, 8]: 7 (100%) (%)
- Total Bilirubin, worst CTC Grade by cycle (increased of at least one Grade versus baseline Grade): Grade 1-2 (%) [1, 8]: 7 (100%) (%)
- SGOT, worst CTC Grade by cycle (increased of at least one Grade versus baseline Grade): All Grades (%) [1, 9]: 4 (80%) (%)
- SGOT, worst CTC Grade by cycle (increased of at least one Grade versus baseline Grade): Grade 1-2 (%) [1, 9]: 1 (20%) (%)
- SGOT, worst CTC Grade by cycle (increased of at least one Grade versus baseline Grade): Grade 3-4 (%) [1, 9]: 3 (60%) (%)
- Total Bilirubin, worst CTC Grade by cycle (increased of at least one Grade versus baseline Grade): All Grades (%) [1, 9]: 4 (80%) (%)
- Total Bilirubin, worst CTC Grade by cycle (increased of at least one Grade versus baseline Grade): Grade 1-2 (%) [1, 9]: 3 (60%) (%)
- Total Bilirubin, worst CTC Grade by cycle (increased of at least one Grade versus baseline Grade): Grade 3-4 (%) [1, 9]: 1 (20%) (%)
- SGPT, worst CTC Grade by cycle (increased of at least one Grade versus baseline Grade): All Grades (%) [1, 10]: 5 (83%) (%)
- SGPT, worst CTC Grade by cycle (increased of at least one Grade versus baseline Grade): Grade 3-4 (%) [1, 10]: 5 (83%) (%)
- frequency of transaminitis, grade 3-4 events ([1]; q6wk versus q8wk schedule): lower in the q6wk than in the q8wk schedule
- Platelets, worst CTC Grade by cycle: All Grades (%) [2, 11]: 10 (91%) (%)
- Platelets, worst CTC Grade by cycle: Grade 1-2 (%) [2, 11]: 10 (91%) (%)
- Platelets, worst CTC Grade by cycle: All Grades (%) [2, 12]: 4 (80%) (%)
- Platelets, worst CTC Grade by cycle: Grade 1-2 (%) [2, 12]: 4 (80%) (%)
- Platelets, worst CTC Grade by cycle: All Grades (%) [2, 13]: 6 (100%) (%)
- Platelets, worst CTC Grade by cycle: Grade 1-2 (%) [2, 13]: 6 (100%) (%)
- Platelets, worst CTC Grade by cycle: All Grades (%) [2, 14]: 5 (100%) (%)
- Platelets, worst CTC Grade by cycle: Grade 1-2 (%) [2, 14]: 5 (100%) (%)
- Platelets, worst CTC Grade by cycle: All Grades (%) [2, 15]: 3 (100%) (%)
- Platelets, worst CTC Grade by cycle: Grade 1-2 (%) [2, 15]: 3 (100%) (%)
- Platelets, worst CTC Grade by cycle: All Grades (%) [2, 16]: 2 (100%) (%)
- Platelets, worst CTC Grade by cycle: Grade 1-2 (%) [2, 16]: 2 (100%) (%)
- Platelets, worst CTC Grade by cycle: All Grades (%) ([2]; 400 mcg/m^2 q8wk, All cycles, 4 evaluable cycles): 1 (25%) (%)
